From US20200360531A1, “ANTIBODY DRUG CONJUGATES (ADCS) WITH NAMPT INHIBITORS” (Bayer Aktiengesellschaft, priority 2018, published 2020)
Values joined by “and” are separate entries in the source; they are usually repeats but may differ in a detail not shown here. Equal entries are not always repeated. Where two headings read alike, the source gives them in different places.

What was measured:
human NAMPT = target: T1, human NAMPT (Homo sapiens, UniProt P43490); experiment: NAMPT biochemical assay (hNAMPT IC50), cascade assay with NMNAT1 and NAD/NADH-Glo detection; details: Table 2; replicate values on separate lines
T1 construct: N-terminally His6-tagged recombinant full length human NAMPT; His6 (N); made in house; host or cells: E. coli
T1 sequence (P43490 whole entry): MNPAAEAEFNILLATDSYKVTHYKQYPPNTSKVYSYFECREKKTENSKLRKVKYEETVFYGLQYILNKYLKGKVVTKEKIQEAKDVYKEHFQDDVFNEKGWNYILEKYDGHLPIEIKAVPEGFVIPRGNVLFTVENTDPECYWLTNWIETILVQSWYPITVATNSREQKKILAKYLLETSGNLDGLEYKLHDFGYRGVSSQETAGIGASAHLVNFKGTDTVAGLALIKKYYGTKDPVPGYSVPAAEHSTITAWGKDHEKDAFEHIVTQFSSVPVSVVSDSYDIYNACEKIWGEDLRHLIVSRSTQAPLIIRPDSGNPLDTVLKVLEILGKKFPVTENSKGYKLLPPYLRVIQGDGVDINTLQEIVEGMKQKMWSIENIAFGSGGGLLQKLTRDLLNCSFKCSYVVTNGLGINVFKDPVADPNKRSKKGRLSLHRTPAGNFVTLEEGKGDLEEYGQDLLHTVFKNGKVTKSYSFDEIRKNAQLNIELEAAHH
Text: NAMPT Biochemical Assay (hNAMPT IC50)
Nicotinamide phosphoribosyltransferase (NAMPT) inhibitory activity of compounds of the present invention was quantified employing a cascade assay as described in the following paragraphs. The assay couples the conversion of nicotinamide (NAM) to nicotinamide mononucleotide (NMN) by NAMPT with the conversion of NMN to […] adenine dinucleotide (NAD^+) by nicotinamide mononucleotide adenylyltransferase 1 (NMNAT1) and the subsequent quantification of the generated NAD^+ by a commercial detection kit (NAD/NADH-Glo™ Assay from Promega, #G9072).
N-terminally His6-tagged recombinant full length human NAMPT and N-terminally His6-tagged recombinant full length human NMNAT1, both expressed in E. coli and purified via Ni-NTA-affinity chromatography and consecutive size exclusion chromatography, were used as enzymes.
For the assay 50 nl of a 100 fold concentrated solution of the test compound in DMSO was pipetted into a white low volume 384 well microtiter plate (Greiner Bio-One, Frickenhausen, Germany), 2.5 μl of a solution of NAMPT in aqueous NMNAT1-containing assay buffer [50 mM Tris/HCl pH 7.5, 12 mM MgCl2, 0.6 mM adenosine-tri-phosphate (ATP), 1 nM NMNAT1, 0.02% (w/v) bovine serum albumin (Sigma-Aldrich #P7906), 0.001% (v/v) Tween-20 (Sigma-Aldrich #P7949)] were added and the mixture was incubated for 15 min at 22° C. to allow pre-binding of the test compounds to the enzyme before the start of the enzyme reaction. Then the reaction was started by the addition of 2.5 μl of a solution of NAM (300 nM=>final conc. in the 5 μl assay volume is 150 nM, Sigma-Aldrich #^47865) and 5-phosphorylribose-1-pyrophosphate pentasodium salt (PRPP, 1.2 μM=>final conc. in the 5 μl assay volume is 0.6 μM, Sigma-Aldrich P8296) in assay buffer and the resulting mixture was incubated for a reaction time of 20 min at 22° C. The concentration of NAMPT was adjusted depending of the activity of the enzyme lot and was chosen appropriate to have the assay in the linear range, typical final concentration in the 5 μl assay volume was 0.16 nM.
The resulting mixture was incubated 2 h at 22° C. to allow a steady-state of the detection system. Subsequently the generated luminescence was measured in a suitable luminescence reader, e.g. a Viewlux™ (Perkin-Elmer), and taken as a measure for the generated NAD^+.

MDA-MB-453 = experiment: Cell proliferation assay, Cell Titer Glo (CTG) method, MDA-MB-453; assay type: cell-based
Experimental: (§1) Cell Proliferation Assay for Nampt-ADCs and Nampt-SMOLs
(§2) Cell Titer Glo (CTG) Method
(§3) To this end, 75 μL per well CTG solution (Promega, catalog #G755B and G756B) was added to cells in sister plates, incubated for 10 min, and luminescence was measured on a VICTOR V instrument (Perkin Elmer). After incubation for either 72 or 96 hrs (Table 1) in the presence of test compounds, 100 μl per well CTG solution was added to all test wells, incubated for 10 min and luminescence was measured on a VICTOR V instrument. […] The DRC software is a Biobook Spreadsheet that was developed by Bayer AG and Bayer Business Services on the IDBS E-Workbook Suite platform (IDBS: ID Business Solutions Ltd., Guildford, UK).

A549 C4.4a B4 = experiment: Cell proliferation assay, Cell Titer Glo (CTG) method, A549 C4.4a B4; assay type: cell-based, human
Experimental: as §1, §2, §3

THP-1 = experiment: Cell proliferation assay, Cell Titer Glo (CTG) method, THP-1; assay type: cell-based, human; details: Table 2, 72 h
Experimental: as §1, §2, §3

U251 MG = experiment: Cell proliferation assay, Cell Titer Glo (CTG) method, U251 MG; assay type: cell-based; details: Table 2
Experimental: as §1, §2, §3

[1] = test system: human breast and lung cancer cell line-derived in vivo models; details: in vitro and in vivo; cited from earlier work
[2] = test system: murine renal cell carcinoma model RENCA; details: cited from earlier work
[3] = Homo sapiens, MDA-MB-453, 72 h, Table 2, read-out: MDA-MB-453 72 h IC50
[4] = Homo sapiens, A549, 72 h, Table 2, read-out: A549 C4.4a B4 72 h IC50

Row | Molecule | IC50 (human NAMPT) | IC50 (U251 MG; 72 h) | IC50 (MDA-MB-453; [3]) | IC50 (A549 C4.4a B4; [4]) | IC50 (THP-1; Homo sapiens, THP-1) | IC50 (U251 MG; Homo sapiens, U-251, 72 h) | IC50 (MDA-MB-453; Table 2, 72 h, read-out: MDA-MB-453 72 h IC50) | IC50 (A549 C4.4a B4; Table 2, 72 h, read-out: A549 C4.4a B4 72 h IC50) | IC50 (THP-1) | cytotoxic effects [1] | In vivo efficacy [2]
1 | 2 or 3-{[(2R)-2-Amino-2-carboxyethyl]sulfanyl}-4-{[2-({6-[3-{4-[(1,3-dihydro-2H-pyrrolo[3,4-c]pyridine-2-carbonyl)amino]phenyl}-5-(5-methyl-1,3,4-oxadiazol-2-yl)-6-oxopyridazin-1(6H)-yl]hexyl}amino)-2-oxoethyl]amino}-4-oxobutanoic Acid [Example 34M] | 1170 pM and 1180 pM | > 300000 pM | – | – | – | – | 91200 pM | > 300000 pM | > 300000 pM | – | –
2 | N#CN=C(NCCCCCCOc1ccc(Cl)cc1)Nc1ccncc1 [CHS-828, N-[6-(4-chlorophenoxy)hexyl]-N′-cyano-N″-4-pyridinyl-guanidine] | – | – | – | – | – | – | – | – | – | highly cytotoxic effects | –
3 | Cc1nnc(C2CC(c3ccc(NC(=O)N4Cc5ccncc5C4)cc3)=NNC2=O)o1 (centres unmarked) [Example 7, N-{4-[5-(5-Methyl-1,3,4-oxadiazol-2-yl)-6-oxo-1,4,5,6-tetrahydropyridazin-3-yl]phenyl}-1,3-dihydro-2H-pyrrolo[3,4-c]pyridine-2-carboxamide] | 1020 pM and 1200 pM | – | 299 pM | > 300000 pM | 995 pM | 8950 pM | – | – | – | – | –
4 | Cc1nnc(-c2cc(-c3ccc(NC(=O)N4Cc5ccncc5C4)cc3)nn(CCCCN)c2=O)o1 [Example 8, N-{4-[1-(4-Aminobutyl)-5-(5-methyl-1,3,4-oxadiazol-2-yl)-6-oxo-1,6-dihydropyridazin-3-yl]phenyl}-1,3-dihydro-2H-pyrrolo[3,4-c]pyridine-2-carboxamide] | 1040 pM and 1320 pM | – | 2660 pM | 93500 pM | 979 pM | 28100 pM | – | – | – | – | –
5 | Cc1nnc(-c2cc(-c3ccc(NC(=O)N4Cc5ccncc5C4)cc3)n[nH]c2=O)o1 [Example 9, N-{4-[5-(5-methyl-1,3,4-oxadiazol-2-yl)-6-oxo-1,6-dihydropyridazin-3-yl]phenyl}-1,3-dihydro-2H-pyrrolo[3,4-c]pyridine-2-carboxamide] | 457 pM and 717 pM | – | 35.7 pM | 97200 pM | 1210 pM | 4340 pM | – | – | – | – | –
6 | Cc1nnc(-c2cc(-c3ccc(NC(=O)N4Cc5ccncc5C4)cc3)nn(CCCCCCN)c2=O)o1 [Example 10, N-{4-[1-(6-Aminohexyl)-5-(5-methyl-1,3,4-oxadiazol-2-yl)-6-oxo-1,6-dihydropyridazin-3-yl]phenyl}-1,3-dihydro-2H-pyrrolo[3,4-c]pyridine-2-carboxamide] | 358 pM and 389 pM | – | 94.3 pM | 267000 pM | 4.71 pM | 8870 pM | – | – | – | – | –
7 | NCCCCN1N=C(c2ccc(NC(=O)N3Cc4ccncc4C3)cc2)C[C@](c2cccc3ncccc23)(C(F)(F)F)C1=O [Example 13, N-{4-[(5R)-1-(4-aminobutyl)-6-oxo-5-(quinolin-5-yl)-5-(trifluoromethyl)-1,4,5,6-tetrahydropyridazin-3-yl]phenyl}-1,3-dihydro-2H-pyrrolo[3,4-c]pyridine-2-carboxamide] | 2770 pM and 3200 pM | – | 436 pM | 227000 pM | 447 pM | 43700 pM | – | – | – | – | –
8 | O=C(Nc1ccc(-c2cc(-c3ccc4cccnc4c3)c(=O)[nH]n2)cc1)N1Cc2ccncc2C1 [Example 24, N-{4-[6-oxo-5-(quinolin-7-yl)-1,6-dihydropyridazin-3-yl]phenyl}-1,3-dihydro-2H-pyrrolo[3,4-c]pyridine-2-carboxamide] | 241 pM and 295 pM | – | < 30 pM | 4920 pM | 9.96 pM | < 30 pM | – | – | – | – | –
9 | NCCCCn1nc(-c2ccc(NC(=O)N3Cc4ccncc4C3)cc2)cc(-c2ccc3cccnc3c2)c1=O [Example 25, N-{4-[1-(4-Aminobutyl)-6-oxo-5-(quinolin-7-yl)-1,6-dihydropyridazin-3-yl]phenyl}-1,3-dihydro-2H-pyrrolo[3,4-c]pyridine-2-carboxamide] | 803 pM and 1150 pM | – | < 30 pM | 57100 pM | 22.7 pM | 428 pM | – | – | – | – | –
10 | O=C(/C=C/c1cccnc1)NCCCCC1CCN(C(=O)c2ccccc2)CC1 [daporinad, (E)-N-[4-(I-benzoylpiperidin-4-yl)butyl]-3-(pyridine-3-yl)-acrylamide] | – | – | – | – | – | – | – | – | – | – | In vivo efficacy of daporinad was shown

Second part, led by results:

Row | IC50 (human NAMPT) | IC50 (U251 MG; 72 h) | IC50 (MDA-MB-453; [3]) | IC50 (A549 C4.4a B4; [4]) | IC50 (THP-1; Homo sapiens, THP-1) | IC50 (U251 MG; Homo sapiens, U-251, 72 h) | Molecule | IC50 (MDA-MB-453; Table 2, 72 h, read-out: MDA-MB-453 72 h IC50) | IC50 (A549 C4.4a B4; Table 2, 72 h, read-out: A549 C4.4a B4 72 h IC50) | IC50 (THP-1) | cytotoxic effects [1] | In vivo efficacy [2]
11 | 267 pM and 288 pM | – | < 30 pM | 11000 pM | < 3 pM | < 30 pM | NCCCCCCn1nc(-c2ccc(NC(=O)N3Cc4ccncc4C3)cc2)cc(-c2cccc3ncccc23)c1=O [Example 6, N-{4-[1-(6-Aminohexyl)-6-oxo-5-(quinolin-5-yl)-1,6-dihydropyridazin-3-yl]phenyl}-1,3-dihydro-2H-pyrrolo[3,4-c]pyridine-2-carboxamide] | – | – | – | – | –
12 | 323 pM and 326 pM | 57 pM | < 30 pM | 23200 pM | < 3 pM | 41.1 pM | O=C(Nc1ccc(-c2cc(-c3ccc4[nH]ncc4c3)c(=O)[nH]n2)cc1)N1Cc2ccncc2C1 [Example 16, N-{4-[5-(1H-indazol-5-yl)-6-oxo-1,6-dihydropyridazin-3-yl]phenyl}-1,3-dihydro-2H-pyrrolo[3,4-c]pyridine-2-carboxamide-hydrogen chloride] | – | – | – | – | –
13 | 218 pM and 346 pM | – | < 30 pM | 12400 pM | 38.5 pM | 642 pM | O=C1NN=C(c2ccc(NC(=O)N3Cc4ccncc4C3)cc2)CC1c1ccc2[nH]ncc2c1 (centres unmarked) [Example 17, N-{4-[5-(1H-indazol-5-yl)-6-oxo-1,4,5,6-tetrahydropyridazin-3-yl]phenyl}-1,3-dihydro-2H-pyrrolo[3,4-c]pyridine-2-carboxamide] | – | – | – | – | –
14 | 213 pM and 226 pM | 42.8 pM | < 30 pM | 58500 pM | ≤ 3 pM | < 30 pM | O=C(Nc1ccc(-c2cc(-c3cccc4[nH]ncc34)c(=O)[nH]n2)cc1)N1Cc2ccncc2C1 [Example 18, N-{4-[5-(1H-indazol-4-yl)-6-oxo-1,6-dihydropyridazin-3-yl]phenyl}-1,3-dihydro-2H-pyrrolo[3,4-c]pyridine-2-carboxamide] | – | – | – | – | –
15 | 156 pM and 229 pM | – | < 30 pM | 6390 pM | < 3 pM | < 30 pM | O=C(Nc1ccc(-c2cc(-c3ccc4[nH]ccc4c3)c(=O)[nH]n2)cc1)N1Cc2ccncc2C1 [Example 20, N-{4-[5-(1H-indol-5-yl)-6-oxo-1,6-dihydropyridazin-3-yl]phenyl}-1,3-dihydro-2H-pyrrolo[3,4-c]pyridine-2-carboxamide] | – | – | – | – | –
16 | 393 pM and 470 pM | – | < 30 pM | 40500 pM | < 3 pM | < 30 pM | O=C1NN=C(c2ccc(NC(=O)N3Cc4ccncc4C3)cc2)CC1c1ccc2[nH]ccc2c1 (centres unmarked) [Example 21, N-{4-[5-(1H-Indol-5-yl)-6-oxo-1,4,5,6-tetrahydropyridazin-3-yl]phenyl}-1,3-dihydro-2H-pyrrolo[3,4-c]pyridine-2-carboxamide] | – | – | – | – | –
